Experimental data as given in patent US4478844A, “Bradycardiac or analgesic 2-(N-(thienyl-2-methyl)-N-(2-fluoro-6-methyl-phenyl)-amino)-2-imidazolin e and salts thereof” (Boehringer Ingelheim KG, priority 1979, dated 1984).

Columns and labels:
mouse [1] = assay: Analgesic activity, writhing test (mouse); type: in vivo
Method: (§1) The end product of Example 1, i.e. 2-[N-(2-fluoro-6-bromo-phenyl)-N-(thienyl-2-methyl)-amino]-2-imidazoline (A), and [N-2,6-dibromo-phenyl)-N-(thienyl-2-methyl)-amino]-2-imidazoline (B), disclosed in column 2, lines 47-48, of U.S. Pat. No. 3,937,717, were tested for analgesic activity and locomotion-inhibiting activity by the standard test methods described in the following literature references:
Analgesic activity: Ph. Linee, J. Pharmacol. (Paris) 3,4 513-515 (1972). Writhing test.

mouse [2] = assay: Locomotion-inhibiting activity (mouse); type: in vivo; conditions: sc, read-out: Locomotion inhibition (mouse) ED50 s.c.
Method: as §1
Locomotion--inhibiting activity: K. Stockhaus et al., Committee on Problems of Drug Dependence (1970) 6890-6898 National Academy of Sciences.

[3] = po, read-out: Writhing test (mouse) ED50 p.o.
[4] = sc, read-out: Writhing test (mouse) ED50 s.c.

| Structure (SMILES) | ED50 (mouse [1]; [3]) [mg/kg] | ED50 (mouse [1]; [4]) [mg/kg] | ED50 (mouse [2]) [mg/kg] |
| --- | --- | --- | --- |
| Brc1cccc(Br)c1N(Cc1cccs1)C1=NCCN1 [B] | 0.6 | 0.3 | 0.6 |
| Fc1cccc(Br)c1N(Cc1cccs1)C1=NCCN1 [A, 2-[N-(2-fluoro-6-bromo-phenyl)-N-(thienyl-2-methyl)-amino]-2-imidazoline] | 0.28 | 0.12 | 0.13 |
